Laboratory results published in patent publication US7098012B1, “DNA demethylase, therapeutic and diagnostic uses thereof” (McGill University, priority 1997, dated 2006).
Entries after “also recorded” stand apart in the source; their conditions may differ.

How the values were obtained:
DNA dMTase [1] = assay: Demethylation of [mdC32pdG]n substrate (conversion of mdCMP to dCMP) with additives or pretreatment; type: biochemical, human; conditions: 500 μM, initial rate conditions, FIG. 2a
Description: (A) To assay the conversion of methyl-dCMP (mdCMP) to dCMP we used a previously described method (Szyf et al., 1995). Briefly, α^32P labeled, fully methylated poly[mdC^32PdG]n substrate was prepared as follows. One hundred ng of a double-stranded fully methylated (mdCpdG) oligomer (Pharmacia) were denatured by boiling, which was followed by partial annealing at room temperature. The complementary strand was extended with Klenow fragment (Boehringer Mannheim) using methyl-5-dCTP (mdCTP, 0.1 mM) (Boehringer Mannheim) and […] (100 μCi, 3000 Ci/mmol), and the unincorporated nucleotides were removed by chromatography through a NAP-5 column (Pharmacia). The NAP-5 chromatography was repeated to exclude minor contamination with unincorporated nucleotides. As a control a non-methylated poly[dC^32pdG]n substrate was similarly prepared except that a nonmethylated dCpdG oligomer served as a template and dCTP was used in the extension reaction. The column fractions (30 μl), described in the experimental procedures were incubated with 1 ng of poly[mdC^32pdG]n substrate for 1 hour at 37° C. in a buffer L containing 25% glycerol (v/v) and 5 mM EDTA. […] The digestion products were loaded onto a thin layer chromatography plate (TLC) (Kodak, 13255 Cellulose), separated in a medium containing, 132 ml Isobutyric acid:40 ml water:4 ml ammonia solution, autoradiographed and the intensity of the different spots was determined using a phosphorimager (Fuji, BAS 2000). ^32P labeled substrates and tritium labeled substrates were phosphoimaged using BAS 2000 plate and BAS-TR2040 phosphorimager plate respectively. (B) The second method determined removal of methylated residues from methylated DNA by measuring disappearance of ^3H—CH3 or ^14C—CH3 from the reaction mixture. […] The number of methyl groups that were removed from the DNA by the different fractions was determined by subtracting the remaining counts in each of the fractions from the counts remaining in the control. […]

DNA dMTase [2] = biological target: DNA dMTase (Homo sapiens, UniProt Q9UBB5); assay: Volatilization of radioactive methyl residues assay; type: biochemical; conditions: imidazole 1 μM to 10 mM; FIG. 16
DNA dMTase (Homo sapiens, UniProt Q9UBB5), sequence (Q9UBB5 whole entry): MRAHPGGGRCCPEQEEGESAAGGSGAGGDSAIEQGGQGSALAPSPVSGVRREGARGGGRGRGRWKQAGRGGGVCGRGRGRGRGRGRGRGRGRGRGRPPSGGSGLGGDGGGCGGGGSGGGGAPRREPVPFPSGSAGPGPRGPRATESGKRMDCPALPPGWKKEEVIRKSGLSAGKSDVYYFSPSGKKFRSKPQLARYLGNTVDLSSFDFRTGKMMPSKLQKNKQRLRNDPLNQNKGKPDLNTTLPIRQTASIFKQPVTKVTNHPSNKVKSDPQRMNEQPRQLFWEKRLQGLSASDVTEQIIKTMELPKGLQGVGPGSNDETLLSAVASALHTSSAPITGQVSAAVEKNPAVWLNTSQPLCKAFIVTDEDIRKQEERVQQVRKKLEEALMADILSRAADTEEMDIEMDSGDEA

inhibition of DNA dMTase activity (DNA dMTase [2]) | inhibition of demethylation of the [mdC32pdG]n substrate (DNA dMTase [1]; listed as methyl dCTP) | SMILES | inhibition of demethylation of the [mdC32pdG]n substrate (DNA dMTase [1])
 |  | Nc1ccn([C@H]2CC[C@@H](COP(=O)(O)OP(=O)(O)OP(=O)(O)O)O2)c(=O)n1 [ddCTP] | insensitive; also recorded: does not inhibit
dose dependent inhibition |  | c1c[nH]cn1 [imidazole] | 
 | not affected | Cc1cn([C@H]2C[C@H](O)[C@@H](COP(=O)(O)OP(=O)(O)OP(=O)(O)O)O2)c(=O)nc1N [methyl-dCTP, methyl-5-dCTP] | nor is it inhibited
